{
  "source": "patent US20180235900A1",
  "about": "“SUBCUTANEOUS RESERVOIR DEVICE AND METHOD OF MANUFACTURE” (Research Triangle Institute, priority 2017, published 2018)",
  "test": "TAF stability in excipients (chromatographic purity by HPLC)",
  "type": "physicochemical",
  "conditions": "excess TAF dissolved in excipient at 37° C., quantified by HPLC",
  "protocol": "Excipients on the FDA GRAS list of acceptable compounds were evaluated for TAF stability and short-duration TAF release. Devices containing TAF in combination with selected GRAS excipients were evaluated in prototype devices 60 days, presented in FIG. 8. […] Tocopherol was not chosen because of the high release rate of TAF near 3.5 mg/day.",
  "note": "Where a name gives a salt, the structure may show the parent alone.",
  "data": [
    {"smiles": "CC(C)OC(=O)[C@H](C)N[P@](=O)(CO[C@H](C)Cn1cnc2c(N)ncnc21)Oc1ccccc1", "note": "[TAF std., Tenofovir Alafenamide Fumarate]", "values": [
      {"measurement": "Chromatographic Purity", "result": 99.88, "unit": "%"}
    ]}
  ]
}
